Experimental data reported in US20240285557A1, “PHARMACEUTICAL COMPOSITION COMPRISING LIPASE INHIBITOR FOR TREATMENT OR TREATMENT OF RNA VIRAL INFECTIONS” (priority 2021, published 2024).
Several values for one entry are separate records, joined by “and”; a condition that tells them apart may be missing. Equal entries are not always repeated. Where two headings read alike, the source gives them in different places.

Assays:
[1] = system: SARS-COV-2, IAV, BCOV, PEDV, RVA, PRRSV, and PSaV; assay: Viral genome copy (real-time PCR) and progeny virus production in cells infected with seven RNA viruses; format: cell-based; settings: 1, 10, and 20 μM; dose-dependent, all seven viruses
From the text: Subsequently, each well was washed three times with phosphate-buffered saline, followed by the addition of the respective viral culture media.
Subsequently, each plate underwent three cycles of freezing and thawing to detach the cells from each well for subsequent experiments.
To analyze the inhibitory effects of atglistatin and CAY10499 on the genome copies of each virus, RNA was extracted using the RNeasy mini kit (Qiagen). The extracted RNA was then used to synthesize cDNA using the TOPscript™ cDNA Synthesis kit (Enzynomics), which includes random hexamer and poly(rA)-oligo(dT). Afterward, real-time PCR was performed on the synthesized cDNA in the TOPreal™ qPCR 2× PreMix (Enzynomics) solution in the presence of specific primers for SARS-COV-2 nucleocapsid (N), influenza A virus PB1, bovine coronavirus spike (S), porcine epidemic diarrhea coronavirus nucleocapsid (N), bovine species A rotavirus VP6, porcine reproductive and respiratory syndrome virus matrix (M), and porcine sapovirus VPg, using the LineGene 9600 Plus Real-time PCR detection system (Bioer, Hangzhou, China).
To analyze the inhibitory effects of atglistatin and CAY10499 on the production of progenies of the viruses, the supernatant obtained after three cycles of freezing and thawing was serially ten-fold diluted. […] After adsorption, each well was washed twice with phosphate-buffered saline (pH 7.4), followed by the addition of the respective culture media.
Then, after removal of the supernatants, the cells were fixed with 4% paraformaldehyde for 15 minutes and each well was washed thrice with phosphate-buffered saline and treated with 0.2% Triton X-100 at 20° C. for 10 minutes.
After three washes with phosphate-buffered saline, the wells were treated with 100- to 200-fold diluted primary antibodies to the spike protein of SARS-COV-2, the nucleoprotein protein of influenza A virus, the spike protein of bovine coronavirus, the nucleocapsid protein of porcine epidemic diarrhea coronavirus, the VP6 protein of bovine species A rotavirus, the matrix protein of porcine reproductive and respiratory syndrome virus, and the VPg protein of porcine sapovirus, respectively, and applied to a refrigerator at 4° C. for 12 hours.
Subsequently, the supernatant was removed, and each well was washed thrice with phosphate-buffered saline, followed by incubation with a 100- to 200-fold dilution of a secondary antibody conjugated with Alexa Fluor 488 or fluorescein isothiocyanate at room temperature for 2 hours.
Each virus was allowed to adsorb onto the cells which were then cultured in a freshly changed medium containing DABPU-EM or DABPU-DE. Thereafter, the cells were detached from the wells for subsequent experiments.

[2] = system: influenza A virus PR8 strain; assay: Influenza A virus-infected mice treated with lipase inhibitor; format: in vivo, C57BL/6J mice; settings: for survival rate: 15 days observation; for free fatty acids and glycerol concentrations in lung tissues / progeny virus numbers in lung tissues / virus gene numbers in lung tissues: 5 mg/kg/day for 4 days, sixth day post-infection; for lung lesions, including interstitial pneumonia, and number of virus-positive cells / number of lipid droplets in bronchiolar epithelial cells / viral antigen in the bronchiolar epithelial cells: 5 mg/kg/day, vs untreated virus-inoculated group; for survival rate, weight loss, and clinical symptoms: 0.01 to 10 mg/kg/day, dose-dependent
Experimental: For use in verifying the antiviral effect of lipase inhibition in animals infected with influenza A virus, 150 mg/ml of atglistatin and 150 mg/ml of CAY10499 were dissolved in DMSO. To evaluate the antiviral effect depending on the concentration, the drugs were prepared at concentrations of 1.000, 0.500, 0.100, 0.010, and 0.001 mg/ml. […] The drugs were completely dissolved by vortexing.
For evaluating the antiviral efficacy of CAY10499, mouse groups were prepared in the same manner with the exception of using CAY10499 instead of atglistatin.
Influenza A virus inoculation was carried out on anesthetized mice via an intranasal route at 1,000 PFU per mouse, following the same procedure as above. In cases where the virus was not injected, only phosphate-buffered saline was administered. Observations were made for 15 days, during which survival rates, body weight, and clinical symptoms were monitored and recorded daily. […] Drug treatment began two days after the inoculation of influenza A virus.
The survival rate, which was 100% with a 0% mortality rate on day 0 of the infection, was measured daily over 15 days, and compared with the survival rate of the virus-injected and untreated group. Statistical significance was analyzed using the Log Rank Test, with a p value of 0.05 or […] considered significant.
Each group consisted of four seven-week-old female wild-type C57BL/6J mice, acclimatized for one week, and used in the experiment at eight weeks of age.
Mice were inoculated with influenza A virus PR8 strain in the same manner as described above, and drug treatment was conducted for 4 days, starting from the second day post-infection. On the sixth day post-infection, the mice were euthanized for autopsy.
These tissues were assayed for free fatty acid levels.
To evaluate lipid droplets and influenza A virus antigen in the lung tissues, the fixed tissues were prepared into 3-μm-thick frozen sections. […] After washing, the sections were mounted with Slow-Fade Gold antifade reagent for nucleus staining.
The sections were then finely cut at 3 μm thickness, deparaffinized in xylene, and rehydrated through graded alcohols and water. […] Histological examination was then performed using an optical microscope.
Immunohistochemistry was performed for influenza A virus antigens in the lung tissue.

[3] = system: SARS-COV-2 strain KCDC03, KDCA51463, or KDCA55905; assay: Proliferation of SARS-CoV-2 in various cultured cells; format: cell-based; settings: Vero E6, Caco-2, Calu-3 cells (FIGS. 21a to 21f); vs solvent (vehicle)
[4] = system: influenza A virus PR8 strain; assay: Proliferation of influenza A virus in MRC-5, NCI-H293, WI-38, and Calu-3 cells; format: cell-based; settings: MRC-5, NCI-H293, WI-38, Calu-3 cells; 1, 10, 20 μM; vs solvent (vehicle)
[5] = system: Influenza A virus (H1N1) (PR8)
[6] = system: Bovine coronavirus (KWD20); settings: for SI (CC50/IC50): Bovine coronavirus (KWD20); for IC50: HRT-18G cells, MOI 0.01 ffu/cell, drug added after 18 hours, additional 18 hours
[7] = system: Porcine epidemic diarrhea coronavirus (QIAP1401); settings: for IC50: Vero E6 cells, MOI 0.01 ffu/cell, drug added after 18 hours, additional 18 hours
[8] = system: Species A Rotavirus (NCDV); settings: for SI (CC50/IC50): Species A Rotavirus (NCDV); for IC50: MA104 cells, MOI 0.01 ffu/cell, drug added after 12 hours, additional 12 hours
[9] = system: Porcine respiratory reproductive syndrome virus (LMY); settings: for SI (CC50/IC50): Porcine respiratory reproductive syndrome virus (LMY); for IC50: MARC-145 cells, MOI 0.01 ffu/cell, drug added after 18 hours, additional 18 hours
[10] = system: Porcine sapovirus (Cowden); settings: for SI (CC50/IC50): Porcine sapovirus (Cowden); for IC50: LLC-PK cells, MOI 0.01 ffu/cell, drug added after 18 hours, additional 18 hours
SARS-CoV-2 (KCDC03) = assay: Half-maximal viral inhibitory concentration (IC50), immunofluorescence of virus-positive cells; settings: for SI (CC50/IC50): SARS-CoV-2 (KCDC03); for IC50: Vero E6 cells, MOI 0.01 ffu/cell, drug added after 18 hours, additional 18 hours
[11] = 5 mg kg^−1 day^−1 intraperitoneally for four days from day 2 post infection
[12] = 10 mg kg^−1 day^−1 intraperitoneally for four days from day 2 post infection, control 100% mortality
[13] = Porcine epidemic diarrhea coronavirus (QIAP1401)

Row | Structure (SMILES) | copies of genomes of each virus [1] | production of progenies of each virus [1] | survival rate [2, 11] [%] | free fatty acids and glycerol concentrations in lung tissues [2] | progeny virus numbers in lung tissues [2] | virus gene numbers in lung tissues [2] | lung lesions, including interstitial pneumonia, and number of virus-positive cells [2] | number of lipid droplets in bronchiolar epithelial cells [2] | viral antigen in the bronchiolar epithelial cells [2] | survival rate [2, 12] | survival rate, weight loss, and clinical symptoms [2] | number of viral genome copies [3] | progeny virus number [4] | viral genome copy number [4] | SI (CC50/IC50) [6] | SI (CC50/IC50) [8] | SI (CC50/IC50) [9] | SI (CC50/IC50) [10] | SI (CC50/IC50) (SARS-CoV-2 (KCDC03)) | IC50 (SARS-CoV-2 (KCDC03)) [nM] | also measured
1 | CN(C)C(=O)Nc1cccc(-c2ccc(N(C)C)cc2)c1 [Atglistatin, 3-(4′-(dimethylamino)-(1,1′-biphenyl)-3-yl)-1,1-dimethylurea] | reduced | reduced | 62.5 | significant decrease | significant decrease | significant decrease | alleviation and reduction | did not decrease significantly | significant reduction | 60% and 62.5% | improvement | significantly reduced | significantly reduced | significantly reduced | 152 | 32 | 84 | 72 | 154 | 1470 | SI (CC50/IC50) ([5]; Influenza A virus (H1N1) (PR8)): 251; SI (CC50/IC50) [7, 13]: 116
2 | COc1nn(-c2ccc(NC(=O)OCc3ccccc3)c(C)c2)c(=O)o1 [CAY10499] | reduced | reduced |  | significant decrease | significant decrease | significant decrease | alleviation and reduction | did not decrease significantly | significant reduction | 50% | improvement |  |  |  | 11 | 4 | 21 | 8 | 62 | 1540 | IC50 [5]: 4130 nM; SI (CC50/IC50) [5]: 27; IC50 [6]: 7.3 µM; SI (CC50/IC50) [7]: 30; IC50 [7]: 3190 nM; IC50 [8]: 20.9 µM; IC50 [9]: 4.21 µM; IC50 [10]: 11.8 µM
3 | CCN(CC)C(=O)Nc1cccc(-c2ccc(N(C)C)cc2)c1 [DABPU-DE] | reduced | reduced | 68.8 | significantly reduced | significantly reduced | significantly reduced | alleviation and reduction | no significant decrease | significantly decreasing | 68.8% | improvement | significantly reduced | significantly reduced | significantly reduced | 158 | 36 | 95 | 81 | 185 | 1200 | SI (CC50/IC50) ([5]; Influenza A virus (H1N1) (PR8)): 207; IC50 ([5]; […], drug added after 12 hours, additional 12 hours): 1030 nM; IC50 [6]: 1.12 µM; SI (CC50/IC50) [7, 13]: 128; IC50 [7]: 1620 nM; IC50 [8]: 5.22 µM; IC50 [9]: 2.29 µM; IC50 [10]: 2.77 µM
